In US11912686B2 (Gilead Sciences, Inc., priority 2020, dated 2024):

What follows are compounds tested against human LPAR1 (Homo sapiens (Human), UniProt Q92633) (assay: LPAR1 intracellular calcium mobilization assay (antagonist mode, FLIPR)). Settings: CHO-K1 EDG2 cells expressing human LPAR1, LPA 18:2 at EC80 (100 nM), test compound 0.5 nM to 10 μM.
Assay type: cell-based

Sequence of human LPAR1 (Q92633 whole entry): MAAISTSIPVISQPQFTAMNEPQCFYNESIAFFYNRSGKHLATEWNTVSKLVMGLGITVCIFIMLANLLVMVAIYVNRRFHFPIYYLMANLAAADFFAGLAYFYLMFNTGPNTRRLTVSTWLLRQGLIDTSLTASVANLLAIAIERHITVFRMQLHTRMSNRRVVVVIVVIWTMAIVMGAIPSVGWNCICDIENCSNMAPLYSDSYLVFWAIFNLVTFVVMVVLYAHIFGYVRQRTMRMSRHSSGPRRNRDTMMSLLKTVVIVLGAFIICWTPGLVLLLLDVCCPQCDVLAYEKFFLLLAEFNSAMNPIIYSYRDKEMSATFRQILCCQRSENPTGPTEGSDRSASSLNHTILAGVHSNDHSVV

Compound	EC50
C[C@@H](OC(=O)Nc1c(-c2ccc(NC(=O)c3cn[nH]c3)cn2)nnn1C)c1cccnc1Cl [Compound 113, (R)-1-(2-chloropyridin-3-yl)ethyl (4-(5-(1H-pyrazole-4-carboxamido)pyridin-2-yl)-1-methyl-1H-1,2,3-triazol-5-yl)carbamate]	775 nM
C[C@@H](OC(=O)Nc1c(-c2ncc(NC(=O)c3ccc(Cl)nc3)cc2F)nnn1C)c1cc(F)cnc1F [Compound 338, (R)-1-(2,5-difluoropyridin-3-yl)ethyl (4-(5-(6-chloronicotinamido)-3-fluoropyridin-2-yl)-1-methyl-1H-1,2,3-triazol-5-yl)carbamate]	132 nM
Cc1nnc(C(=O)Nc2ccc(-c3nnn(C)c3NC(=O)O[C@H](C)c3cc(F)cnc3F)nc2)o1 [Compound 257, (R)-1-(2,5-difluoropyridin-3-yl)ethyl (1-methyl-4-(5-(5-methyl-1,3,4-oxadiazole-2-carboxamido)pyridin-2-yl)-1H-1,2,3-triazol-5-yl)carbamate]	443 nM
C[C@@H](OC(=O)Nc1c(-c2ncc(NC(=O)C34CC(C#N)(C3)C4)cc2F)nnn1C)c1cc(F)cnc1F [Compound 337, (R)-1-(2,5-difluoropyridin-3-yl)ethyl (4-(5-(3-cyanobicyclo[1.1.1]pentane-1-carboxamido)-3-fluoropyridin-2-yl)-1-methyl-1H-1,2,3-triazol-5-yl)carbamate]	163 nM
CO[C@]1(C#N)C[C@H](C(=O)Nc2ccc(-c3nnn(C)c3NC(=O)O[C@H](C)c3cccnc3Cl)nc2)C1 [Compound 138, (R)-1-(2-chloropyridin-3-yl)ethyl (4-(5-((1s,3S)-3-cyano-3-methoxycyclobutane-1-carboxamido)pyridin-2-yl)-1-methyl-1H-1,2,3-triazol-5-yl)carbamate]	84.9 nM
CCCC(=O)Nc1ccc(-c2nnn(C)c2NC(=O)O[C@H](C)c2cccnc2Cl)nc1 [Compound 30, (R)-1-(2-chloropyridin-3-yl)ethyl (4-(5-butyramidopyridin-2-yl)-1-methyl-1H-1,2,3-triazol-5-yl)carbamate]	516 nM
C[C@@H](OC(=O)Nc1c(-c2ccc(NC(=O)c3ccc(C(F)(F)F)nc3)cn2)nnn1C)c1cc(F)cnc1Cl [Compound 288, (R)-1-(2-chloro-5-fluoropyridin-3-yl)ethyl (1-methyl-4-(5-(6-(trifluoromethyl)nicotinamido)pyridin-2-yl)-1H-1,2,3-triazol-5-yl)carbamate]	33.5 nM
C[C@@H](OC(=O)Nc1c(-c2ccc(NC(=O)[C@@H]3CCC(=O)N3)cn2)nnn1C)c1cccnc1Cl [Compound 151, (R)-1-(2-chloropyridin-3-yl)ethyl (1-methyl-4-(5-((S)-5-oxopyrrolidine-2-carboxamido)pyridin-2-yl)-1H-1,2,3-triazol-5-yl)carbamate]	3150 nM
Cc1cc(C(=O)Nc2ccc(-c3nnn(C)c3NC(=O)O[C@H](C)c3cc(F)cnc3F)nc2)on1 [Compound 260, (R)-1-(2,5-difluoropyridin-3-yl)ethyl (1-methyl-4-(5-(3-methylisoxazole-5-carboxamido)pyridin-2-yl)-1H-1,2,3-triazol-5-yl)carbamate]	161 nM
C[C@@H](OC(=O)Nc1c(-c2ccc(NC(=O)C3C(F)(F)C34CC4)cn2)nnn1C)c1cccnc1Cl (stereo partly drawn) [Compound 199, (R)-1-(2-chloropyridin-3-yl)ethyl (4-(5-(2,2-difluorospiro[2.2]pentane-1-carboxamido)pyridin-2-yl)-1-methyl-1H-1,2,3-triazol-5-yl)carbamate]	65.7 nM
CC(=O)Nc1ccc(-c2nnn(C)c2NC(=O)O[C@H](C)c2cccnc2Cl)cc1 [Compound 6, (R)-1-(2-chloropyridin-3-yl)ethyl (4-(4-acetamidophenyl)-1-methyl-1H-1,2,3-triazol-5-yl)carbamate]	1860 nM
C[C@@H](OC(=O)Nc1c(-c2ccc(NC(=O)C3(C#N)CC3)cn2)nnn1C)c1cc(F)cnc1Cl [Compound 168, (R)-1-(2-chloro-5-fluoropyridin-3-yl)ethyl (4-(5-(1-cyanocyclopropane-1-carboxamido)pyridin-2-yl)-1-methyl-1H-1,2,3-triazol-5-yl)carbamate]	16.2 nM
C[C@@H](OC(=O)Nc1c(-c2ccc(NC(=O)C3CCC3C#N)cn2)nnn1C)c1cccnc1Cl (stereo partly drawn) [Compound 142, (R)-1-(2-chloropyridin-3-yl)ethyl (4-(5-(2-cyanocyclobutane-1-carboxamido)pyridin-2-yl)-1-methyl-1H-1,2,3-triazol-5-yl)carbamate]	217 nM
C[C@@H](OC(=O)Nc1c(-c2ccc(NC(=O)c3ccnc(C(F)(F)F)c3F)cn2)nnn1C)c1cc(F)cnc1F [Compound 261, (R)-1-(2,5-difluoropyridin-3-yl)ethyl (4-(5-(3-fluoro-2-(trifluoromethyl)isonicotinamido)pyridin-2-yl)-1-methyl-1H-1,2,3-triazol-5-yl)carbamate]	11.9 nM
CC(=O)NC12CC(C(=O)Nc3ccc(-c4nnn(C)c4NC(=O)O[C@H](C)c4cccnc4Cl)nc3)(C1)C2 [Compound 312]	1530 nM
C[C@@H](OC(=O)Nc1c(-c2ccc(NC(=O)c3ccnc(C#N)c3)cn2)nnn1C)c1cccnc1Cl [Compound 100, (R)-1-(2-chloropyridin-3-yl)ethyl (4-(5-(2-cyanoisonicotinamido)pyridin-2-yl)-1-methyl-1H-1,2,3-triazol-5-yl)carbamate]	90.8 nM
Cc1noc(C(=O)Nc2ccc(-c3nnn(C)c3NC(=O)O[C@H](C)c3cc(F)cnc3F)nc2)c1C [Compound 276, (R)-1-(2,5-difluoropyridin-3-yl)ethyl (4-(5-(3,4-dimethylisoxazole-5-carboxamido)pyridin-2-yl)-1-methyl-1H-1,2,3-triazol-5-yl)carbamate]	140 nM
CO[C@]1(C#N)C[C@@H](C(=O)Nc2cnc(-c3nnn(C)c3NC(=O)O[C@H](C)c3cc(F)cnc3F)nc2)C1 [Compound 334, (R)-1-(2,5-difluoropyridin-3-yl)ethyl (4-(5-((1r,3R)-3-cyano-3-methoxycyclobutane-1-carboxamido)pyrimidin-2-yl)-1-methyl-1H-1,2,3-triazol-5-yl)carbamate]	3420 nM
C[C@@H](OC(=O)Nc1c(-c2ccc(NC(=O)[C@]3(F)C[C@H](O)C3)cn2)nnn1C)c1cccnc1Cl [Compound 133, (R)-1-(2-chloropyridin-3-yl)ethyl (4-(5-((1r,3R)-1-fluoro-3-hydroxycyclobutane-1-carboxamido)pyridin-2-yl)-1-methyl-1H-1,2,3-triazol-5-yl)carbamate]	344 nM
C[C@@H](OC(=O)Nc1c(-c2ccc(NC(=O)C3(C(F)F)CC3)cn2)nnn1C)c1cccnc1Cl [Compound 116, (R)-1-(2-chloropyridin-3-yl)ethyl (4-(5-(1-(difluoromethyl)cyclopropane-1-carboxamido)pyridin-2-yl)-1-methyl-1H-1,2,3-triazol-5-yl)carbamate]	322 nM
Cc1nc(-c2nnn(C)c2NC(=O)O[C@H](C)c2cc(F)cnc2F)ccc1NC(=O)C1(C#N)CC1 [Compound 313, (R)-1-(2,5-difluoropyridin-3-yl)ethyl (4-(5-(1-cyanocyclopropane-1-carboxamido)-6-methylpyridin-2-yl)-1-methyl-1H-1,2,3-triazol-5-yl)carbamate]	51.8 nM
